These results are taken from patent US7919577B2, “Adrenocorticotropic hormone analogs and related methods” (Colorado Seminary, priority 2004, dated 2011).

The assay relates to dexamethasone-suppressed male FVB/N mice. The experiment in a line: in vivo Serum Corticosteroid Induction Assay (Example 1). Details: species or system mouse. The following applies: relative to unmodified mACTH(1-24); 1 μg subcutaneously to dexamethasone-suppressed mice; blood one hour later. As for the experimental part: An in vivo Serum Corticosteroid Induction Assay measures the level of corticosteroid or corticosterone in the blood stream of a subject. More specifically, the in vivo Serum Corticosteroid Induction Assay can include the following steps: first, an agent to suppress endogenous ACTH production was administered to a mouse subject, such as an intraperitoneal injection of dexamethasone; second, after waiting a suitable period of time for suppression of endogenous ACTH production (e.g., 1.5-2.0 hours), a test compound can be administered to the mouse by a suitable method, such as intraperitoneal or subcutaneous injection; and third, after waiting a suitable period of time (e.g., 1 hour) for action of the injected test compound, a blood sample can be taken from the subject and the level of serum corticosterone can be determined by a suitable method, such as a competitive radioimmunoassay using ^125I RIA kit (ICN, Costa Mesa, Calif.). Example 1 describes a murine in vivo Serum Corticosteroid Induction Assay in detail.
The corticosteroid or corticosterone secretion induced in vivo by an ACTH analog compound was compared to the level of corticosteroid secretion produced by an unmodified ACTH compound by measuring blood serum corticosteroid after administering either the ACTH or ACTH analog as test compounds. […] ACTH analog compositions with decreased function were identified by measuring corticosterone levels using standard radioimmunoassay (RIA) analysis on blood samples collected one hour after administering the mACTH(1-24) or ACTH analog compound to dexamethasone-suppressed mice. In FIG. 1, the potency of various ACTH analog peptides is expressed as percent induction of corticosterone, with mouse ACTH being 100%. […] The percent of corticosterone induction 12 of ACTH analog Compounds in Samples 2-10 are shown as a percentage of the concentration of serum corticosterone 20 measured for unmodified mACTH(1-24) in the in vivo Serum Corticosteroid Adrenal Induction Assay. The structural modifications and measured percentage reduction in serum measured for Samples 2-10 in FIG. 1 are shown in Table 3 below.
The in vivo Serum Corticosteroid Induction Assay was performed according the following method. First, two to three month-old male FVB/N mice from our colony, five per group, were injected intraperitoneally with dexamethasone (0.4 mg/0.1 ml PBS per mouse; Sigma, St. Louis, Mo.) to suppress their endogenous ACTH production. See Hajos, G T et al., “Studies of the potency of polypeptides with ACTH action by a new method based on continuous measurement of plasma corticosterone,” Steroids Lipids Res 3:225-228 (1972), Costa, J L, et al., “Mutational analysis of evolutionarily conserved ACTH residues,” Gen Comp Endocrinol, 136:12-16 (2004), and Karpac, J, et al., “Development, Maintenance, and Function of the Adrenal Gland in Early Postnatal Pro-opiomelanocortin Null Mutant Mice,” Endocrinology (2005), published online ahead of print Feb. 24, 2005, all of which are incorporated herein by reference.
Second, ninety to one hundred twenty minutes later, the dexamethasone-suppressed mice were injected subcutaneously between the shoulder blades with either unmodified mACTH(1-24) or one of several ACTH analog peptide compounds (1 μg/0.1 mL PBS/0.5% BSA), or with vehicle alone (control) (0.1 mL PBS/0.5% BSA). The following ACTH analog peptide compounds were administered to separate mice: 1: murine ACTH1-24; 2: V26F,E30K; 3: P19W,K21E,Y23R; 4: E30K,P36R; 5: ALA19-24; 6: V26F,P36R; 7: P19W, K21E; 8: P19W,K21A,delY23; 9: P19W,K21A; 10: KRRP16-19RAAW (AT814) (SEQ ID NO:20).
Third, one hour later, blood was collected within less than 1 minute from a small incision in the tail, and serum was flash-frozen and stored at −80° C. until assayed. Serum corticosterone was determined by competitive radioimmunoassay (^125I RIA kit; ICN, Costa Mesa, Calif.) according to the manufacturer's recommendations. One microliter of serum was used per assay sample. […]

No end group written: not given here.

Regarding “N-Ser^1-Tyr-Ser-Met-Glu^5-His-Phe-Arg-Trp-Gly^10-Lys-Pro-Val-Gly-Lys^15-Arg-Ala-Ala-Trp-Val^20-Lys-Val-Tyr-Pro-Ac (SYSMEHFRWGKPVGKRAAWVKVYP; not fully specified; printed as N-Ser1-Tyr-Ser-Met-Glu5-His-Phe-Arg-Trp-Gly10-Lys-Pro-Val-Gly-Lys15-Arg-Ala-Ala-Trp-Val20-Lys-Val-Tyr-Pro-Ac) [AT814]”, the “Percent reduction in serum corticosteroid” value was determined as 100%.
